# Measurements as given in ChEMBL document CHEMBL1201862, “PubChem BioAssay data set” (2004).
# pIC50: −log10 of the molar value. The source made the active and inactive calls.
# How the values were obtained:
# [1] = loss of viability in HepG2 cells – cell-based, CellTiter-Glo, cherry-picked, cytotoxicity control for Shn3 inhibitor project, dose response (AID 624134); type: functional
# [2] = Trypanosoma cruzi growth suppression in host cells – NIH3T3 host cells, beta-gal luminescence, confirmation (AID 2044); type: functional, cell-based;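 further: intracellular parasites grown in NIH/3T3 mouse fibroblasts as host cells; luminescent beta-galactosidase reporter signal from transgenic T. cruzi replicating inside host cells; inhibitors lower the luminescence signal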
# [3] = non-specific 3'UTR reporter inhibition in Clone20-Shn3RL – cell-based, Renilla luciferase, cherry-picked, counter-screen for Shn3 inhibitor project, dose response (AID 624133); type: functional
# cells [4] = type: functional, cell-based
# cells [5] = type: functional, cell-based; remark: listed apart in the source
# [6] = target: T1, Probable nicotinate-nucleotide adenylyltransferase (Staphylococcus aureus (strain N315), UniProt P65502); type: functional, Staphylococcus aureus subsp. aureus N315;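 on IC50 Mean: confirmatory dose-response retesting of NadD inhibitor hits first found in an ultra-high-throughput screen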
# [7] = target: T2, Type-1 angiotensin II receptor (Homo sapiens, UniProt P30556); experiment: agonist activity at AGTR1 – cell-based, uHTS hits, selectivity assay for APJ receptor agonist project, dose response (AID 488865); type: functional;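 further: beta-arrestin recruitment to AT1 measured by enzyme fragment complementation luminescence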
# T2 sequence (P30556 whole entry): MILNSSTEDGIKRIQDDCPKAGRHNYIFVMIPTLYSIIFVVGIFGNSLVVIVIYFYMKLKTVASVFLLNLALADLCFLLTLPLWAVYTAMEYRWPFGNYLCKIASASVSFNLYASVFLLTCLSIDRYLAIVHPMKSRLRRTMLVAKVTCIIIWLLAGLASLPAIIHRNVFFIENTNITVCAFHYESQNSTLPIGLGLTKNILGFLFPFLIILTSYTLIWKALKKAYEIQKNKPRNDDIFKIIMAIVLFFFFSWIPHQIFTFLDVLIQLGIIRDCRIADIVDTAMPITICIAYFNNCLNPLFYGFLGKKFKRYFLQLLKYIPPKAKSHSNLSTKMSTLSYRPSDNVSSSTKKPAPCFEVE
# INS1 = experiment: INS-1E survival protection against cytokine death – cell-based, luminescence, retest, dose response (AID 449756); type: functional; conditions: Rattus norvegicus;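 further: cell death triggered by IL-1 beta plus TNF-alpha plus IFN-gamma mixture; protective hits raise ATP signal compared with cytokine alone wells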
# Streptococcus = experiment: GAS UMAA2166 growth inhibition – luminescence, BacTiterGlo, counter-screen for streptokinase expression inhibitor project, dose response (AID 1915); type: functional, organism-based;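 further: potency for reduction of bacterial viability or growth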
# [8] = NIH3T3 cell viability loss – ATP luminescence, mouse fibroblasts, counter-screen, dose response (AID 2010); type: functional, cell-based;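 further: cells exposed to compound for about 90 hours before reading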
# [9] = system: Streptococcus sp. 'group A'; experiment: Streptococcus pyogenes SK(-)GAS viability under kanamycin – luminescence, BacTiterGlo, confirmation, counter-screen for streptokinase expression inhibitor project, dose response (AID 1900); type: functional, organism-based
# Streptokinase A = target: T3, Streptokinase A (Streptococcus pyogenes serotype M1, UniProt P10520); experiment: viability-normalized secreted streptokinase activity reduction – plasminogen activation absorbance, OD405, dose response (AID 1914); type: functional, Streptococcus pyogenes M1 GAS;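 further: secreted streptokinase activity via plasminogen activation per viability signal from cell pellet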
# T3 sequence (P10520 whole entry): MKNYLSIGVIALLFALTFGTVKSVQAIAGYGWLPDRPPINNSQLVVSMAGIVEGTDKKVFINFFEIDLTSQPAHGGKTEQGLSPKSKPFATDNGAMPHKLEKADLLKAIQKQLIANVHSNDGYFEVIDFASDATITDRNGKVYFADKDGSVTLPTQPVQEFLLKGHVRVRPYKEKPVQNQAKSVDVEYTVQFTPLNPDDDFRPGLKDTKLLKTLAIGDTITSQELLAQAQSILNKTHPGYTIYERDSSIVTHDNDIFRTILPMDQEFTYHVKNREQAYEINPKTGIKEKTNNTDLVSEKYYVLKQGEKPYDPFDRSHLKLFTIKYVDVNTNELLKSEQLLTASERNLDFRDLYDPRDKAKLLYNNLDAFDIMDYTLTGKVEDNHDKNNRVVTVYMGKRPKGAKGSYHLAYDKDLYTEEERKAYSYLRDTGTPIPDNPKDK
# [10] = reduction of Shn3 3'UTR-driven luciferase in osteoblasts – cell-based, Clone20 osteoblasts, firefly luciferase, cherry-picked, dose response (AID 624132); type: functional;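 further: firefly luciferase luminescence from reporter carrying the Shn3 3'UTR in osteoblasts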
# [11] = target: T1, Probable nicotinate-nucleotide adenylyltransferase; type: functional, Staphylococcus aureus subsp. aureus N315; conditions: read-out: IC50_Mean
# [12] = viability of uninfected HEp-2 cells – cell-based, HTS, cytotoxicity control for RSV inhibitor project, dose response (AID 2410); type: functional; conditions: human respiratory syncytial virus
# Mucolipin-3 = target: T4, Mucolipin-3 (Homo sapiens, UniProt Q8TDD5); experiment: Fluorescence counterscreen assay for […] agonists: dose response cell-based high-throughput screening assay to identify agonists of the transient receptor potential channel ML3 (TRPML3). [Related pubchem assays: 1424, 1448 ]; type: functional
# T4 sequence (Q8TDD5 whole entry): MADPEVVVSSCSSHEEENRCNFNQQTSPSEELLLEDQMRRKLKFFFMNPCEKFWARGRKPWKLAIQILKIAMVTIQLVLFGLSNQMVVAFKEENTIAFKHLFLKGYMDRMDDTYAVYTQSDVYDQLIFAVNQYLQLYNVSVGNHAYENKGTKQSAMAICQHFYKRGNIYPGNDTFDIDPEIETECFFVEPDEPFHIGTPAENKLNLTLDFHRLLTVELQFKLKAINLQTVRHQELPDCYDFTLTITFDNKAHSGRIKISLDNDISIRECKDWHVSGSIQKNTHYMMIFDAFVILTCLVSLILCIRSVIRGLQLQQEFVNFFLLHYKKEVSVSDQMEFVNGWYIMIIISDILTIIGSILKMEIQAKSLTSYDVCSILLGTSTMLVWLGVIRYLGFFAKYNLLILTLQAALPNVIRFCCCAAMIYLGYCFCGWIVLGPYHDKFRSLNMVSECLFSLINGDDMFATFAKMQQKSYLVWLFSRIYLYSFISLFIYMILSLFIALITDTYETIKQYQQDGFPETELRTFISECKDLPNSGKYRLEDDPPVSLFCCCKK
# Ion channel NompC = Ion channel NompC (Danio rerio, UniProt Q7T1G6); experiment: Dose response cell-based high-throughput screening assay for agonists of the transient receptor potential channel N1 (TRPN1). [Related pubchem assays (depositor defined):AID1424, AID1448]; type: functional
# [13] = target: T5, Delta-type opioid receptor (Homo sapiens, UniProt P41143); experiment: HTS Image-Based Screen for Agonists of the DOR Receptor. [Related pubchem assays (depositor defined):AID1777, AID1786, AID2133]; type: functional
# Mu-type opioid receptor = Mu-type opioid receptor (Homo sapiens, UniProt P35372); experiment: HTS Image-Based Screen for Agonists of the MOR Receptor. [Related pubchem assays (depositor defined):AID1777, AID1785, AID1786, AID2133]; type: functional;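 further: imaging of beta-arrestin GFP recruitment into spots after receptor activation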
# [14] = target: T6, Kappa-type opioid receptor (Homo sapiens, UniProt P41145); type: functional
# [15] = target: T6, Kappa-type opioid receptor; type: functional; remark: listed apart in the source
# Beta-galactosidase = Beta-galactosidase (Escherichia coli, UniProt Q8VNN2); type: functional
# [16] = target: T5, Delta-type opioid receptor; experiment: HTS Image-Based Screen for Antagonists of the DOR Receptor. [Related pubchem assays (depositor defined):AID1777, AID1785, AID1786, AID2133]; type: functional
# [17] = target: T7, Ubiquitin-conjugating enzyme E2 N (Homo sapiens, UniProt P61088); type: functional
# T7 sequence (P61088 whole entry): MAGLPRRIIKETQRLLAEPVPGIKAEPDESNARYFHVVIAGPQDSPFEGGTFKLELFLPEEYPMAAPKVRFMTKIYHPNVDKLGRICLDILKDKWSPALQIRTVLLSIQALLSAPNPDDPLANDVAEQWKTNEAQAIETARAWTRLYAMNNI
# Bcl-2-related protein A1 = target: T8, Bcl-2-related protein A1 (Mus musculus, UniProt Q07440); type: functional;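 further: confirmatory dose–response counterscreen on Bfl-1, used to check hits from a UBC13 polyubiquitin inhibitor campaign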
# T8 sequence (Q07440 whole entry): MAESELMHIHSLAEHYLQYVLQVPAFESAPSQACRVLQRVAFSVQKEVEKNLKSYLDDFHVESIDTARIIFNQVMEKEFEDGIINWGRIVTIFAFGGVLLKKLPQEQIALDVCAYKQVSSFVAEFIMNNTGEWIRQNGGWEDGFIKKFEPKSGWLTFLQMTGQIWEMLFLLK
# [18] = target: T7, Ubiquitin-conjugating enzyme E2 N; type: functional; remark: listed apart in the source
# [19] = target: T9, DNA repair protein RAD52 homolog (Homo sapiens, UniProt P43351); type: functional, biochemical
# T9 sequence (P43351 whole entry): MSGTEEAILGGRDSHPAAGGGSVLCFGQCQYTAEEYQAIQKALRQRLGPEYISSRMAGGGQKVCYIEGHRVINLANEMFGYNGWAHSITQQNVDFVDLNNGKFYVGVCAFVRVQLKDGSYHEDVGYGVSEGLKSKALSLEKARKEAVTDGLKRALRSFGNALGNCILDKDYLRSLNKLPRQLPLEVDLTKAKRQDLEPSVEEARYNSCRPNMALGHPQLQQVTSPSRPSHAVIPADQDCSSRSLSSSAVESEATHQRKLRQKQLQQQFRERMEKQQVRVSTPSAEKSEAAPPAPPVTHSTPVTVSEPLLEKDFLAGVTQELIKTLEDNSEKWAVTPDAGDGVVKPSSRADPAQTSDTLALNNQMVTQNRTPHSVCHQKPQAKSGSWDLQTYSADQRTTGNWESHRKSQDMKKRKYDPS
# T5 sequence (P41143 whole entry): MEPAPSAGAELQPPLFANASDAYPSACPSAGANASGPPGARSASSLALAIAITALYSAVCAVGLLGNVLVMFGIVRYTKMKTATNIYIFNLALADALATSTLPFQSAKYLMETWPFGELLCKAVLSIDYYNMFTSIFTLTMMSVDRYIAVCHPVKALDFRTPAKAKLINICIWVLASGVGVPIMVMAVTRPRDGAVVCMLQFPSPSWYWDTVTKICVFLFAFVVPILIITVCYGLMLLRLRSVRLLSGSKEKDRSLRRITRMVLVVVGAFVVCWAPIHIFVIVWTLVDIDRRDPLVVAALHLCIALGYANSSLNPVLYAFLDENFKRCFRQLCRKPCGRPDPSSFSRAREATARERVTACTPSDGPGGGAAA
# T6 sequence (P41145 whole entry): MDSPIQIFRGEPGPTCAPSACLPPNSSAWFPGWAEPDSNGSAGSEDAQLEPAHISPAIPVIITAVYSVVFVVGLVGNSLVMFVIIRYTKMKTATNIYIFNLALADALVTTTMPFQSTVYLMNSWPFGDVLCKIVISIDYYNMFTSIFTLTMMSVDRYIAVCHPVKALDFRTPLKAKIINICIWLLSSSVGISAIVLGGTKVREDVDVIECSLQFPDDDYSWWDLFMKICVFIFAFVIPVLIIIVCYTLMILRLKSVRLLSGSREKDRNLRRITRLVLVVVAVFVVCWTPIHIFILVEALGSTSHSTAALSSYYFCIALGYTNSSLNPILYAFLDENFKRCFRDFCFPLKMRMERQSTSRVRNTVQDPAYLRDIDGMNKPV
# T1 sequence (P65502 whole entry, the tested form may be a part): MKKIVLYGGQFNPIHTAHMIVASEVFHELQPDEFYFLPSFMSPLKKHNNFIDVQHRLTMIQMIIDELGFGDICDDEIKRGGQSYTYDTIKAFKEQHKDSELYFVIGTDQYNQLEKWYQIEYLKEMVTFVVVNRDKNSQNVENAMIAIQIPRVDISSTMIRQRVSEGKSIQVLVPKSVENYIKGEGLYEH
# Ion channel NompC, sequence (Q7T1G6 whole entry): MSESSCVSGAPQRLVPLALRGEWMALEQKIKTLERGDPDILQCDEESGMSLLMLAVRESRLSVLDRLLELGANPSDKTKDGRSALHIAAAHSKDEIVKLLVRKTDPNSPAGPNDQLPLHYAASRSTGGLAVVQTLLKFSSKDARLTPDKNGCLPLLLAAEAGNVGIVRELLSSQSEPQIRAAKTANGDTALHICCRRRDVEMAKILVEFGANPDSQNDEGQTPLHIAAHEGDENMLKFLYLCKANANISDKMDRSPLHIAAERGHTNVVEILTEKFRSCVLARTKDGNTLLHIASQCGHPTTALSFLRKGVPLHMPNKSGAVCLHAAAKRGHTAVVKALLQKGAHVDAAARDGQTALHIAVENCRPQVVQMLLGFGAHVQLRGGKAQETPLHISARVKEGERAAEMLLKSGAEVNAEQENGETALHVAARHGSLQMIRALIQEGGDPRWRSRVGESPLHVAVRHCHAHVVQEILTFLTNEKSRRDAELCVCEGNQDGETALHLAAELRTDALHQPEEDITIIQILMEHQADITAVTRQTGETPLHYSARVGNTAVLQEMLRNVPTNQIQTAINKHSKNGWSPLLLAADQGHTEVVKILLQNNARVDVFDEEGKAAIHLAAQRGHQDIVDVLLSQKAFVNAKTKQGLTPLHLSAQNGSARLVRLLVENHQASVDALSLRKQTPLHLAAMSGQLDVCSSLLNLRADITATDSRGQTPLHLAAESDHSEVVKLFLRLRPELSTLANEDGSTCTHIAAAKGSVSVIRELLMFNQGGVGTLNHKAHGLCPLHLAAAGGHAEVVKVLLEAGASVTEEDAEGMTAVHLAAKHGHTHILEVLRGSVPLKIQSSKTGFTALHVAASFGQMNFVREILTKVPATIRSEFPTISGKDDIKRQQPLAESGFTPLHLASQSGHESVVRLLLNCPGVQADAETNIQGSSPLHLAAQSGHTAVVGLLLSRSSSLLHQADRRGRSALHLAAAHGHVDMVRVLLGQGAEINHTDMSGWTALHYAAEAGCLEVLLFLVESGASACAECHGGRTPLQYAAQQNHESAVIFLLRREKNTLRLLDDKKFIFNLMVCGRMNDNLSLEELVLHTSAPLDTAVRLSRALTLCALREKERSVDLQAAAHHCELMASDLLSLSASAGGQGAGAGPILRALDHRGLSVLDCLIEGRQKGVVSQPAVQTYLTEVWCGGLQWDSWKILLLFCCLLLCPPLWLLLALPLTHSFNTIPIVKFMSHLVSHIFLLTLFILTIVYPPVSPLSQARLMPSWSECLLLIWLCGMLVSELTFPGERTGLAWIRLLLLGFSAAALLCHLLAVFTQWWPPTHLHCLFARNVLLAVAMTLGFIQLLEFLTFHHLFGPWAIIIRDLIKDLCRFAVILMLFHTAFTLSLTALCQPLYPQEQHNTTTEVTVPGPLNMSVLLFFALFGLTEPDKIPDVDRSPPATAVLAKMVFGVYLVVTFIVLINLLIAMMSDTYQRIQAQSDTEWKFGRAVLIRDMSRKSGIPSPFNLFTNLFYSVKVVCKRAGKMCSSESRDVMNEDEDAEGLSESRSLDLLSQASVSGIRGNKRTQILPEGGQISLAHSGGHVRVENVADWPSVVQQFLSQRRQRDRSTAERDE
# Mu-type opioid receptor, sequence (P35372 whole entry): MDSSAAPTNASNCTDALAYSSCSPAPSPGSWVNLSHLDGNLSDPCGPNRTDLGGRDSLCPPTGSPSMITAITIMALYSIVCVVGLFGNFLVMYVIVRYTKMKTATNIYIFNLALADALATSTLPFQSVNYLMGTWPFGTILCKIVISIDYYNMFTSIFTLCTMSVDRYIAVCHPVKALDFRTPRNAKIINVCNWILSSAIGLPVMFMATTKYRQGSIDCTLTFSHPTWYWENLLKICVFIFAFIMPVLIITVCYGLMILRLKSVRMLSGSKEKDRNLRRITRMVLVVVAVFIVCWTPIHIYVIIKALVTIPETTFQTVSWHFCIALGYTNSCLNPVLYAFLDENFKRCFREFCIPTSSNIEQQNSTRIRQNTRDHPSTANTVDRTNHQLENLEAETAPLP
# Beta-galactosidase, sequence (Q8VNN2 whole entry): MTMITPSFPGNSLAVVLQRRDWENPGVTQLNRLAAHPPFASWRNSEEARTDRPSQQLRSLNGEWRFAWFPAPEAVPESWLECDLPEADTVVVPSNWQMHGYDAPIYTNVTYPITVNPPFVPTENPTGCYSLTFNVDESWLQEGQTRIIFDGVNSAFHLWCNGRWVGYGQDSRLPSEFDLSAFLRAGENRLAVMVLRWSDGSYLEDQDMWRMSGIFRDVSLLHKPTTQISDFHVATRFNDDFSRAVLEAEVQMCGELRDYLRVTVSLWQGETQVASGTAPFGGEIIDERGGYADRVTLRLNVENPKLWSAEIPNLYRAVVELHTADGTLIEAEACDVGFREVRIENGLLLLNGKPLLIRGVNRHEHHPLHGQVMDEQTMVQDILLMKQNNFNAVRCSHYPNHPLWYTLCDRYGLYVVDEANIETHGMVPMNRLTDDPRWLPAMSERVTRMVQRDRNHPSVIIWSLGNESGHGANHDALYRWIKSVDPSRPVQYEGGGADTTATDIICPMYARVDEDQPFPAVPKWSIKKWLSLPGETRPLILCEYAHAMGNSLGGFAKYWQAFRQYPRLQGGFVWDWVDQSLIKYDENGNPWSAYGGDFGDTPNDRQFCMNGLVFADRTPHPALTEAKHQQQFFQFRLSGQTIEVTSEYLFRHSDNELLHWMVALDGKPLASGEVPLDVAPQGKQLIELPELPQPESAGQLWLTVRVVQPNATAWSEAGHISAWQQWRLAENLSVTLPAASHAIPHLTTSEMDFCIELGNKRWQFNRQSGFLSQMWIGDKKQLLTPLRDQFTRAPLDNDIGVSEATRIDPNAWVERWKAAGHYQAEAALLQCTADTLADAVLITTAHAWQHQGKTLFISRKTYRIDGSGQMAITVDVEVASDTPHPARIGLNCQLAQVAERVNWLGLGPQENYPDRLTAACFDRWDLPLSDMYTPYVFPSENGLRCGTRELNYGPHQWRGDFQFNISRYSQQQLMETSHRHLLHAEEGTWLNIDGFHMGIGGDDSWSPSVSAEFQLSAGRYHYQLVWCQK
smiles,measurement,setting,value
Cc1cc(C)c2nc(NNC(=O)c3ccc(S(=O)(=O)N4CCc5ccccc5C4)cc3)sc2c1,AC50,[1],2.91 µM (active)
same,EC50,[2],0.661 µM (active)
same,AC50,[3],3.35 µM (active)
same,EC50,cells [4],7.06 µM (active)
same,EC50,cells [5],> 350 µM (not active)
same,IC50,[6],7.18 µM (active)
same,EC50,[7],> 100 µM (inactive)
same,AC50,INS1,2.19 µM (active)
same,EC50,Streptococcus,61.5 µM (inconclusive)
same,EC50,[8],< 6 µM (inconclusive)
same,EC50,[9],0.458 µM (active)
same,EC50,Streptokinase A,> 150 µM (not active)
same,AC50,[10],1.98 µM (active)
same,IC50,[11],38.1 µM (active)
COc1ccccc1CC(=O)Nc1ccc([N+](=O)[O-])cc1O,CC50,[12],27.7 µM (active)
same,EC50,Mucolipin-3,> 29.9 µM (not active)
same,EC50,Ion channel NompC,> 29.9 µM (inactive)
Cc1ccc(CN2C3CCCC2CC(NC(=O)c2ccc(F)cc2)C3)cc1 (stereo not drawn),EC50,[13],> 32 µM (inactive)
same,EC50,Mu-type opioid receptor,> 32 µM (inactive)
same,pIC50,[14],5.43
same,IC50,[15],7.7 µM (active)
same,EC50,Beta-galactosidase,> 31.5 µM (inactive)
same,IC50,[16],> 32 µM (inactive)
CCOc1cccc2sc(N(CCCN(C)C)C(=O)c3ccc(S(=O)(=O)N4CCc5ccccc5C4)cc3)nc12,IC50,[17],8.33 µM (active)
same,EC50,[7],> 100 µM (inactive)
same,IC50,Bcl-2-related protein A1,> 20 µM (inactive)
same,IC50,[18],7.45 µM (active)
same,AC50,[19],21.2 µM (active)
